Source: patent publication US20240174690A1, “ANNULATED 2-AMINO-3-CYANO THIOPHENES AND DERIVATIVES FOR THE TREATMENT OF CANCER” (BOEHRINGER INGELHEIM INTERNATIONAL GMBH, priority 2021, published 2024)
Converted amounts (≈) assume the structure as drawn. Read-outs that look alike come from different tables or passages of the source.

Experiments:
[1] = Metabolic (microsomal) stability assay, human liver microsomes (HLM); format: in vitro ADME; conditions: predicted clearance as percent of liver blood flow, 1 μM
Outline: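 LC-MS/MS tracked parent disappearance at 0, 5, 15, 30 and 60 min in NADPH-initiated incubations with 1 mg/mL human microsomal protein and 1 μM compound at 37°C, pH 7.5. First-order fits gave intrinsic clearance, which was scaled up and reported as % QH. NADPH-free controls were also run.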

[2] = test system: KRAS G12D-dependent Ba/F3 cells; assay: Ba/F3 proliferation assay, KRAS G12D; format: cell-based; conditions: Mus musculus, BaF3, 72 h, AlamarBlue
Outline: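 Viability is measured as AlamarBlue fluorescence in Ba/F3 cells that depend on a transduced mutant KRAS isoform for growth without IL-3. Each treatment is run in technical duplicate, and dose-response curves are fitted.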

[3] = Solubility measurement (DMSO solution method), McIlvaine buffer pH 4.5 or 6.8; format: physicochemical; conditions: aqueous buffer, kinetic from dmso stock, DMSO stock diluted to 250 μM, 24 h shaking at ambient temperature
Outline: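 DMSO stock diluted into McIlvaine buffer, pH 4.5 or 6.8, to 250 µM final, shaken 24 h at ambient temperature. Precipitate removed by filtration; filtrate quantified by LC-UV against a fully dissolved reference in acetonitrile/water 1:1.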

[4] = McIlvaine buffer pH 4.5, read-out: solubility pH 4.5
[5] = McIlvaine buffer pH 6.8, read-out: solubility pH 6.8

Row | Compound | HLM QH [1] [%] | IC50 [2] [nM] | solubility at 24 h [3, 4] [µg/mL] | solubility at 24 h [3, 5] [µg/mL]
1 | C[C@H](Oc1nc(-c2onc3c2CCC[C@@]32CCCc3sc(N)c(C#N)c32)cc(N2CCN(C)C3(CC3)C2)n1)[C@@H]1CCCN1C [I-40] | 42 | 243 |  | 
2 | C[C@H](Oc1cc(-n2ccc(C(=O)N[C@@H]3CCOC3)n2)nc(-c2onc3c2CCC[C@@]32CCCc3sc(N)c(C#N)c32)n1)[C@@H]1CCCN1C [I-56] | 25 | 16 | 108 (≈ 161 µM) | 97 (≈ 145 µM)
3 | C[C@H](Oc1cc(N2CCN(C)C3(CC3)C2)nc(-c2onc3c2CCC[C@@]32CCCc3sc(N)c(C#N)c32)n1)[C@@H]1CCCN1C [I-41] | <24 | 11 | > 137 | 118 (≈ 192 µM)
4 | C[C@H](Oc1cc(-c2ccn(C[C@@H](C)O)n2)nc(-c2onc3c2CCC[C@@]32CCCc3sc(N)c(C#N)c32)n1)[C@@H]1CCCN1C [I-30] | <24 | 42 | > 150 | > 141
5 | C[C@H](Oc1cc(-c2ccn3ncnc3c2)nc(-c2onc3c2CCC[C@@]32CCCc3sc(N)c(C#N)c32)n1)[C@@H]1CCCN1C [I-33] | <24 | 81 | 8 (≈ 13.2 µM) | 4 (≈ 6.58 µM)
6 | C[C@H](Oc1cc(-n2nccn2)nc(-c2onc3c2CCC[C@@]32CCCc3sc(N)c(C#N)c32)n1)[C@@H]1CCCN1C [I-29] | 27 | 71 | > 114 | 82 (≈ 147 µM)
7 | C[C@H](Oc1cc(-c2ccn(CC(C)(C)O)n2)nc(-c2onc3c2CCC[C@@]32CCCc3sc(N)c(C#N)c32)n1)[C@@H]1CCCN1C [I-26] | <24 | 48 |  | 
8 | CO[C@@H]1C[C@@H]([C@H](C)Oc2cc(-c3ccn(C)n3)nc(-c3onc4c3CCC[C@@]43CCCc4sc(N)c(C#N)c43)n2)N(C)C1 [I-23] | 45 | 27 | 106 (≈ 176 µM) | < 1
9 | C[C@H](Oc1cc(N2C[C@H](C)N(C)[C@@H](C)C2)nc(-c2onc3c2CCC[C@@]32CCCc3sc(N)c(C#N)c32)n1)[C@@H]1CCCN1C [I-43] | <24 | 63 | > 346 | > 306
10 | C[C@H](Oc1cc(N2CCNC3(CCC3)C2)nc(-c2onc3c2CCC[C@@]32CCCc3sc(N)c(C#N)c32)n1)[C@@H]1CCCN1C [I-3] | <24 | 5 | > 173 | > 176
11 | C[C@H](Oc1cc(N2CCN(C)C3(CCC3)C2)nc(-c2onc3c2CCC[C@@]32CCCc3sc(N)c(C#N)c32)n1)[C@@H]1CCCN1C [I-44] | <24 | 91 |  | 
12 | C[C@H](Oc1cc(N2CCN(C)C3(COC3)C2)nc(-c2onc3c2CCC[C@@]32CCCc3sc(N)c(C#N)c32)n1)[C@@H]1C[C@@H](F)CN1C [I-37] | 51 | 78 | > 149 | 17 (≈ 26.2 µM)

Continued, values first:

Row | HLM QH [1] [%] | IC50 [2] [nM] | solubility at 24 h [3, 4] [µg/mL] | solubility at 24 h [3, 5] [µg/mL] | Compound
13 | <24 | 26 | > 152 | > 152 | C[C@H](Oc1cc([C@@H]2CCN(C)C2)nc(-c2noc3c2CCC[C@@]32CCCc3sc(N)c(C#N)c32)n1)[C@@H]1CCCN1C [II-37]
14 | <24 | 94 | > 141 | > 134 | C[C@H](Oc1cc(N2CC(N(C)C)C2)nc(-c2noc3c2CCC[C@@]32CCCc3sc(N)c(C#N)c32)n1)[C@@H]1CCCN1C [II-7]
15 | <24 | 37 | > 194 | 62 (≈ 92.6 µM) | C[C@H](Oc1cc(-n2ccc(C(=O)NC3(C)COC3)n2)nc(-c2noc3c2CCC[C@@]32CCCc3sc(N)c(C#N)c32)n1)[C@@H]1CCCN1C [II-26]
16 | <24 | 82 |  |  | C[C@H](Oc1cc(N2C[C@H]3CN(C)C[C@H]3C2)nc(-c2noc3c2CCC[C@@]32CCCc3sc(N)c(C#N)c32)n1)[C@@H]1CCCN1C [II-33]
17 | <24 | 183 | > 147 | > 132 | C[C@H]1CN(C)CCCN1c1cc(N2CC[C@H](N(C)C)C2)nc(-c2noc3c2CCC[C@@]32CCCc3sc(N)c(C#N)c32)n1 [II-16]
18 | <24 | 273 | > 136 | > 125 | C[C@H]1CN(C)CCCN1c1cc(N2CCN(C)CC2)nc(-c2noc3c2CCC[C@@]32CCCc3sc(N)c(C#N)c32)n1 [II-30]
19 | <24 | 70 | > 164 | > 149 | C[C@H](Oc1cc(N2CCC(N(C)C)CC2)nc(-c2noc3c2CCC[C@@]32CCCc3sc(N)c(C#N)c32)n1)[C@@H]1CCCN1C [II-48]
20 | 54 | 1040 | 19 (≈ 32.2 µM) | < 1 | C[C@H](Oc1cc(-n2ccsc2=O)nc(-c2noc3c2CCC[C@@]32CCCc3sc(N)c(C#N)c32)n1)[C@@H]1CCCN1C [II-135]
21 | <24 | 14 | > 144 | > 130 | C[C@H](Oc1cc(N2CC[C@H](N(C)C)C2)nc(-c2noc3c2CCC[C@@]32CCCc3sc(N)c(C#N)c32)n1)[C@@H]1C[C@@H](F)CN1C [II-15]
22 | <24 | > 25000 | < 1 | < 1 | C[C@H](Oc1cc(-n2ccc(C(=O)O)n2)nc(-c2noc3c2CCC[C@@]32CCCc3sc(N)c(C#N)c32)n1)[C@@H]1CCCN1C [II-24]
23 | 31 | 32 | > 115 | 104 (≈ 185 µM) | C[C@H](Oc1cc(C2CCCO2)nc(-c2noc3c2CCC[C@@]32CCCc3sc(N)c(C#N)c32)n1)[C@@H]1CCCN1C (stereo partly shown) [II-44]
24 | <24 | 3 | > 121 | 117 (≈ 194 µM) | C[C@H](Oc1cc(N2CCNC(C)(C)C2)nc(-c2noc3c2CCC[C@@]32CCCc3sc(N)c(C#N)c32)n1)[C@@H]1CCCN1C [II-32]
25 | <24 | 7 | > 140 | > 133 | C[C@H](Oc1cc(N2CCNC3(CCC3)C2)nc(-c2noc3c2CCC[C@@]32CCCc3sc(N)c(C#N)c32)n1)[C@@H]1CCCN1C [II-40]
26 | <24 | 26 | 119 (≈ 186 µM) | 9 (≈ 14 µM) | C[C@H](Oc1cc(-c2ccn([C@H]3CCCOC3)n2)nc(-c2noc3c2CCC[C@@]32CCCc3sc(N)c(C#N)c32)n1)[C@@H]1CCCN1C [II-42]
27 | <24 | 10 | > 151 | 123 (≈ 196 µM) | C[C@H](Oc1cc(N2CC[C@H](N3CCCC3)C2)nc(-c2noc3c2CCC[C@@]32CCCc3sc(N)c(C#N)c32)n1)[C@@H]1CCCN1C [II-14]
28 | 52 | 68 |  |  | C[C@H](Oc1cc(N2CCN(C)CC2)nc(-c2noc3c2CCC[C@@]32CCCc3sc(N)c(C#N)c32)n1)[C@@H]1CCCN1[C@@H]1CCOC1 [II-39]
29 | <24 | 11 |  |  | C[C@H](Oc1cc([C@H]2CCN(C)C2)nc(-c2noc3c2CCC[C@@]32CCCc3sc(N)c(C#N)c32)n1)[C@@H]1CCCN1C [II-38]
30 | <24 | 82 |  |  | CN[C@H]1CCN(c2cc(O[C@@H](C)[C@@H]3CCCN3C)nc(-c3noc4c3CCC[C@@]43CCCc4sc(N)c(C#N)c43)n2)C1 [II-35]
